One compound from patent US20210267201A1, “HERBICIDAL MIXTURES COMPRISING ISOXAFLUTOLE, DIMETHENAMID OR DIMETHENAMID-P AND AN IMIDAZOLINONE HERBICIDE; AND THEIR USE IN SOYBEAN AND COTTON CULTURES” (BASF SE, priority 2018, published 2021) can be followed below.

Structures are written as SMILES.

The test system of the assay is AVEFA (Avena fatua, wild oat). Nature of the assay: greenhouse experiment: herbicidal action, scale from 0 to 100, synergism by Colby's equation. It counts as in vivo. The settings on record: scale 0 to 100, test period 20 days. Here is the method:
However, the weed control afforded by the compounds, mixtures or compositions is not limited to these species. The analysis of synergism or antagonism between the mixtures or compositions is determined using Colby's equation.
Synergism can be described as an interaction where the combined effect of two or more compounds is greater than the sum of the individual effects of each of the compounds. The presence of a synergistic effect in terms of percent control, between two mixing partners (X and Y) can be calculated using the Colby equation (Colby, S. R., 1967, Calculating Synergistic and Antagonistic Responses in Herbicide Combinations, Weeds, 15, 21-22):
When the observed combined control effect is greater than the expected (calculated) combined control effect (E), then the combined effect is synergistic.
The culture containers used were plastic flowerpots containing loamy sand with approximately 3.0% of humus as the substrate. The seeds of the test plants were sown separately for each species. For pre-emergence treatment, the active ingredients, which had been suspended or emulsified in water, were applied directly after sowing by means of finely distributing nozzles. […] During this time, the plants were tended, and their response to the individual treatments was evaluated. […]

Take `CS(=O)(=O)c1cc(C(F)(F)F)ccc1C(=O)c1cnoc1C1CC1` [Isoxaflutole, isoxaflutole]: the “Herbicidal action against AVEFA, Found” value runs as follows: (Isoxaflutole 12.5 g/ha alone) 0; (Isoxaflutole 25 g/ha alone) 0.
